≈ marks a conversion by molar mass, not a printed value. Read-outs that look alike come from different tables or passages of the source.
Experiments:
intact rabbit corneas [1] = system: intact rabbit corneas
Method: 10 mM phosphate buffer was added to the appropriately weighed mass of the solid active ingredients, and stirred thoroughly for 15 minutes. […] The three test solutions were then stirred for 10 minutes at room temperature (with heating up to 60° C. for 5 minutes). After stirring, the solution was sonicated for 5 minutes. After allowing the complete dilution of all the active and non-active ingredients, the pH was adjusted to either 7.4 or 5.65 by using 1 M NaOH or 1 M HCl, and additional buffer was added to make up the exact compositions in the Table 15. With the adjustment of pH, the appearance was noted as per Table 14, and the formulations were further equilibrated by stirring for an additional 15 hours or more at room temperature. The pH of the all sample solutions was measured again to confirm the final desired pH. These formulations were used directly as sample donor solutions for the cornea permeation study.

isolated rabbit cornea = details: pH 7.4
Excerpt: The permeability coefficient is inversely proportional to the initial concentration of the drug in the donor solution.

intact rabbit corneas [2] = details: for enhancement of corneal permeation rate: male, New Zealand, rabbit, 180 min, pH 5.65
Method: The samples were filtered by 0.45 μm filter syringe. The initial concentration of both the samples was determined by UPLC analysis.
Three male rabbits (New Zealand) weighing 3-4 pounds. The age of the rabbits was 11-12 weeks. Immediately after sacrifice by an overdose of carbon dioxide gas, the eyes were enucleated, saline washed, and the corneas were separated for the use in permeation experiments. Each cornea was rinsed with freshly prepared receptor solution (Table 4) to remove excess stain. The six intact and fresh corneas were fixed between clamped donor and receptor compartments of an all glass side-by-side diffusion cell in such a way that its epithelial surface faces the donor compartment.
The corneal area available for permeation was 0.211 cm^2. The receptor compartment was filled with freshly prepared receptor solution at pH 7.2, as per the composition described in Table 4. An aliquot (5 mL) of sample #1 was placed on the two intact corneas, and the opening of the donor cells was sealed with a glass cover slip. After 10 minutes of applying sample #1, an aliquot (5 mL) of sample #2 was applied on the next two intact corneas. Again, after 10 minutes, sample #3 aliquot (5 mL) was applied on the remaining two intact corneas. The receptor fluid (5 mL in each receptor cell) was kept at constant temperature of 34° C. using constant stirring through water jacket in all the six cases. At predetermined time intervals of 10, 20, 40, 60, 80, 100, 120, 140, 160, and 180 minutes, 200 μL samples were withdrawn from the receptor solution. Thereafter, the same amount of the phosphate buffer solution was added to the receptor cell. The drug concentrations were assayed by UPLC.
At the end of the experiment, each cornea (free from adhering sclera) was weighed after soaking in de-ionized water. The wet cornea was dried overnight in oven, and reweighed. From the difference of weights, corneal hydration was calculated. […] The parameters that were calculated are as follows:

[3] = Aqueous solubility of Dorzolamide in the presence of Timolol with HP, PEG, Polysorbate 80 (Experimental Example 3); format: physicochemical
Method: The final pH was adjusted to 5.65 with 1 M NaOH after addition of HP (sample 1). The combination of different molecular weight PEG and Polysorbate 80 at pH 5.65 as per Table 3 were also attempted. […] After allowing the suspensions to equilibrate at room temperature for an additional 30 minutes, the suspension solutions were then sonicated for 10 minutes and finally filtered through 0.45 μm syringe filters.

intact rabbit corneas [4] = system: intact rabbit corneas; remark: listed apart in the source
Excerpt: These suspension solutions were used directly as sample donor solutions for the cornea permeation study. In order to determine the solubility, the suspensions were filtered through 0.45 μm syringe filters.
Three male rabbits (New Zealand) weighing 2 to 3 kg. Immediately after sacrifice by an overdose of inhaler isoflurane, the eyes were enucleated, and the corneas were separated for use in the permeation experiments.

[5] = pH-solubility of Dorzolamide with hyperbranched polymer and PEG (Experimental Example 1); format: physicochemical; details: 0.1% (w/v) phosphate buffer, FIG. 1
Method: Similar suspensions were also prepared in aqueous solution containing different concentrations of different HP and PEG with a molecular weight of 8000. A combination of Polysorbate 80 and PEG 8000 was also attempted. The pH was measured accurately with micro-pH electrode (Thermo Scientific). The desired pH was adjusted using either 1 M NaOH or 1 M HCl. […] After allowing the suspensions to equilibrate at room temperature for an additional 30 minutes, the suspension solutions were then sonicated for 10 minutes and finally filtered through 0.45 μm syringe filters.

[6] = cited from earlier work; for pKa (amine group): protonated secondary amine (Dorzolamide), amine (Brinzolamide); for pKa (sulfonamide group): sulfonamide (Dorzolamide), primary sulfonamide (Brinzolamide)
[7] = Solubility of CAI with Bis-MPA hyperbranched polyester or PEG combination at pH 7.4 (Experimental Example 9); format: physicochemical; details: pH 7.4, 0.5% Timolol, 5% 3rd BMPA-HP
Method: Secondly, the effective volume of 5% (w/v) BMPA-HP solution was diluted appropriately to make up the exact concentrations described in Table 18. […] After stirring, the solution was sonicated for 5 minutes. […] The filtrates were analyzed for CAI using UPLC with the same condition as EXPERIMENTAL EXAMPLE 1.

physchem = format: physicochemical; details: pH 7, aqueous with cosolvent or surfactant or cyclodextrin, thermodynamic from solid
Method: After allowing the suspensions to equilibrate at room temperature for additional 30 minutes, the suspension solutions were then sonicated for 10 min and finally filtered through 0.45 μm syringe filters.

[8] = pH 7.4, 0.5% (w/v) Timolol, 5% (w/v) HP (Boltorn W3000)
Method: The emulsion was prepared by slowing dispersing water to the weighed amount of waxed Boltorn® W3000 to make 5% (w/v) emulsion with continuous stirring and heating at 60-70° C. for at least 30 minutes, followed by continuous vigorous stirring for an additional 15 hours, to obtain a homogeneous emulsion mixture in a flask.
10 mM phosphate buffer was added to the appropriately weighed mass of solid active ingredients and stirred thoroughly for 15 minutes. Secondly, the effective volume of 5% (w/v) HP emulsion solution was diluted appropriately to make up the exact concentrations described in Table 13. The sample test emulsion solutions were then stirred for 10 minutes at room temperature (with heating up to 60° C. for 5 minutes). After stirring, the emulsion solution was sonicated for 5 minutes. After allowing the complete emulsion of all the active and non-active ingredients, the pH was adjusted to 7.4 by using 1 M NaOH, and additional buffer was added to make up the exact compositions in Table 13. With the adjustment of the pH, the emulsion solutions were further equilibrated by stirring for an additional 15 hours or more at room temperature. The pH of all the sample emulsion solutions was measured again to confirm the final desired pH of 7.4.

| diffusion coefficient on addition of HP (intact rabbit corneas [1]) | cumulative amount permeated relative to control formulation at similar pH with no additives (intact rabbit corneas [1]; male, New Zealand, rabbit, 180 min, pH 7.4) | cumulative amount permeated relative to the market product (isolated rabbit cornea; male, New Zealand, rabbit, 180 min) | diffusion coefficient on addition of HP and Polysorbate 80 (intact rabbit corneas [2]) | enhancement of corneal permeation rate (intact rabbit corneas [2]) | solubility of Timolol with the addition of additives ([3]; pH 5.65 and pH 7, samples containing 0.5% w/v Timolol) | diffusion coefficient on addition of HP (intact rabbit corneas [4]) | pH-solubility profile (aqueous solubility vs pH) [5] | cumulative amount permeated compared to the market product (isolated rabbit cornea) | solubility thermodynamic at 30 min ([3]; aqueous buffer, thermodynamic from solid, pH 7, 10 mM phosphate buffer, no additives) | solubility [7] | solubility at 30 min (physchem) | solubility [8] | Structure (SMILES) | pKa (amine group) [6] | pKa (sulfonamide group) [6] |
| --- | --- | --- | --- | --- | --- | --- | --- | --- | --- | --- | --- | --- | --- | --- | --- |
| did not change significantly | ~2 times | more than 2 times | did not change significantly | 25-30% | did not change | did not change significantly |  |  |  |  |  |  | CC(C)(C)NC[C@H](O)COc1nsnc1N1CCOCC1 [Timolol] |  |  |
| did not change significantly |  |  | did not change significantly | 25-30% |  | did not change significantly | reaches a bottom at pH 7 | almost comparable | < 5 mg/mL |  |  |  | CCN[C@H]1C[C@H](C)S(=O)(=O)c2sc(S(N)(=O)=O)cc21 [Dorzolamide] | 6.35 | 8.5 |
|  |  |  |  |  |  |  |  |  |  | about 1 % (w/v) | ~11 mg/mL (≈ 28.7 mM) | about 2 % (w/v) | CCN[C@H]1CN(CCCOC)S(=O)(=O)c2sc(S(N)(=O)=O)cc21 [Brinzolamide] | 5.9 | 8.4 |

Source: patent US20130053374A1, “OPHTHALMIC COMPOSITION” (priority 2010, published 2013)
